Structures can show the parent of a compound that is named as a salt. Where two headings read alike, the source gives them in different places.
Tests used:
Type in all cases: physicochemical
[1] = Form and chemical stability studies of the intermediate
Source text: [drawing 6] which can be named as (6-amino-2-pyridyl)-(1-methyl-4-piperidyl)methanone dihydrate dihydrochloride. Preferably this compound is crystalline. (6-amino-2-pyridyl)-(1-methyl-4-piperidyl)methanone dihydrate dihydrochloride is particularly useful in the preparation of 2,4,6-trifluoro-N-[6-(1-methylpiperidine-4-carbonyl)-2-pyridyl]benzamide hemisuccinate, and processes which employ (6-amino-2-pyridyl)-(1-methyl-4-piperidyl)methanone dihydrate dihydrochloride may provide advantageous process characteristics, including but not limited to the purity of intermediate and/or final materials. (6-amino-2-pyridyl)-(1-methyl-4-piperidyl)methanone dihydrate dihydrochloride is believed to be a new stable hydrated form of 6-amino-2-pyridyl)-(1-methyl-4-piperidyl)methanone. The process to isolate (6-amino-2-pyridyl)-(1-methyl-4-piperidyl)methanone dihydrate dihydrochloride described herein provides improved impurity rejection and an improved controlled crystallization process. […] Use of this intermediate provides advantageously high purity product at expected yield.

[2] = Solubility in 10 mmol acetate, citrate or phosphate buffer (excess solid equilibrated at RT overnight, HPLC)
Method: Lasmiditan acetate was discovered to enable a desired dose target of about 50 mg in the minimal volume of less than or equal to about 1 mL, while at the same time achieving a desired target pH being close to neutral, and in addition being relatively isotonic and physically and chemically stable. […] For solubility determinations 10 mmol buffer is made with a respective acid and salt, and pH is adjusted by changing the acid/salt ratio. Excess solid is equilibrated at RT overnight, and solution concentration is analyzed by HPLC and solid was characterized by XRPD. In contrast, for lasmiditan acetate it was discovered that solubility of >50 mg/mL can be achieved, at close to neutral pH, without adjusting the pH.

[3] = Dissolution of lasmiditan acetate at 50 mg/mL: pH and tonicity of the solution; conditions: dissolution at 50 mg/mL
Method: (§1) Lasmiditan acetate enables the desired solubility to provide high concentration formulations having a less than or equal to about 1 mL dose volume, for the desired unit doses, which is critical for clinical applications such as use in available autoinjector devices. In addition, dissolution of lasmiditan acetate at 50 mg/mL results in close to neutral pH (pH approximately 6.8), is isotonic, and stable for at least 2 months.

[4] = Stability of lasmiditan acetate 50 mg/mL solution; conditions: dissolution at 50 mg/mL
Method: as §1

CN1CCC(C(=O)c2cccc(N)n2)CC1 [(6-amino-2-pyridyl)-(1-methyl-4-piperidyl)methanone dihydrate dihydrochloride]
form and chemical stability [1]: generally stable

CC(=O)O.CN1CCC(C(=O)c2cccc(NC(=O)c3c(F)cc(F)cc3F)n2)CC1 [Lasmiditan Acetate, 2,4,6-trifluoro-N-[6-(1-methylpiperidine-4-carbonyl)-2-pyridyl]benzamide acetate]
solubility compared with lasmiditan hemisuccinate salt [2]: significantly higher solubility
solubility ([2]; 10 mmol acetate buffer, pH 3.69, aqueous buffer, thermodynamic from solid, Acetate buffer, pH (before) 3.69, free base eq., all added solute went into solution, read-out: Solubility (Free Base eq. mg/mL)): > 441 mg/mL
solubility ([2]; 10 mmol acetate buffer, pH 4.05, aqueous buffer, thermodynamic from solid, Acetate buffer, pH (before) 4.05, free base eq., all added solute went into solution, read-out: Solubility (Free Base eq. mg/mL)): > 430 mg/mL
solubility ([2]; 10 mmol acetate buffer, pH 4.4, aqueous buffer, thermodynamic from solid, Acetate buffer, pH (before) 4.4, free base eq., all added solute went into solution, read-out: Solubility (Free Base eq. mg/mL)): > 412 mg/mL
solubility ([2]; 10 mmol acetate buffer, pH 5.09, aqueous buffer, thermodynamic from solid, Acetate buffer, pH (before) 5.09, free base eq., all added solute went into solution, read-out: Solubility (Free Base eq. mg/mL)): > 430 mg/mL
solubility ([2]; 10 mmol acetate buffer, pH 5.71, aqueous buffer, thermodynamic from solid, Acetate buffer, pH (before) 5.71, free base eq., all added solute went into solution, read-out: Solubility (Free Base eq. mg/mL)): > 486 mg/mL
solubility ([2]; 10 mmol buffer (acetate, citrate or phosphate), pH 6.8, thermodynamic from solid, at close to neutral pH, without adjusting the pH, read-out: solubility): > 50 mg/mL
solubility ([2]; 10 mmol citrate buffer, pH 2.5, aqueous buffer, thermodynamic from solid, Citrate buffer, pH (before) 2.5, free base eq., all added solute went into solution, read-out: Solubility (Free Base eq. mg/mL)): > 300 mg/mL
solubility ([2]; 10 mmol citrate buffer, pH 3.84, aqueous buffer, thermodynamic from solid, Citrate buffer, pH (before) 3.84, free base eq., all added solute went into solution, read-out: Solubility (Free Base eq. mg/mL)): > 300 mg/mL
solubility ([2]; 10 mmol citrate buffer, pH 4.99, aqueous buffer, thermodynamic from solid, Citrate buffer, pH (before) 4.99, free base eq., all added solute went into solution, read-out: Solubility (Free Base eq. mg/mL)): > 300 mg/mL
solubility ([2]; 10 mmol citrate buffer, pH 5.96, aqueous buffer, thermodynamic from solid, Citrate buffer, pH (before) 5.96, free base eq., all added solute went into solution, read-out: Solubility (Free Base eq. mg/mL)): > 300 mg/mL
solubility ([2]; 10 mmol phosphate buffer, pH 8.24, aqueous buffer, thermodynamic from solid, Phosphate buffer, pH (before) 8.24, free base eq., all added solute went into solution, read-out: Solubility (Free Base eq. mg/mL)): > 300 mg/mL
pH (after) ([2]; Acetate buffer, pH (before) 3.69): 6.25
pH (after) ([2]; Acetate buffer, pH (before) 4.05): 6.41
pH (after) ([2]; Acetate buffer, pH (before) 4.4): 6.31
pH (after) ([2]; Acetate buffer, pH (before) 5.09): 6.50
pH (after) ([2]; Acetate buffer, pH (before) 5.71): 6.56
pH (after) ([2]; Citrate buffer, pH (before) 2.5): 5.60
pH (after) ([2]; Citrate buffer, pH (before) 3.84): 5.72
pH (after) ([2]; Citrate buffer, pH (before) 4.99): 6.23
pH (after) ([2]; Citrate buffer, pH (before) 5.96): 6.24
pH (after) ([2]; Phosphate buffer, pH (before) 8.24): 6.42
pH on dissolution [3]: approximately 6.8
tonicity of solution [3]: isotonic
stability of solution [4]: at least 2 months

CN1CCC(C(=O)c2cccc(NC(=O)c3c(F)cc(F)cc3F)n2)CC1 [lasmiditan hemisuccinate, 2,4,6-trifluoro-N-[6-(1-methylpiperidine-4-carbonyl)-2-pyridyl]benzamide hemisuccinate, reference compound]
achieving >50 mg/mL solubility ([2]; at close to neutral pH): difficult without using co-solvents

— US12071423B2, “Processes and intermediate for the large-scale preparation of 2,4,6-trifluoro-N-[6-(1-methyl-piperidine-4-carbonyl)-pyridin-2-yl]-benzamide hemisuccinate, and preparation of 2,4,6-trifluoro-N-[6-(1-methyl-piperidine-4-carbonyl)-pyridin-2-yl]-benzamide acetate” (Eli Lilly and Company, priority 2019, dated 2024)
